This is an account of results in patent publication US12325701B2, “YKL-40 inhibitors and their therapeutic” (Molecure S.A., priority 2022, dated 2025).

This experiment concerns the target YKL-40 (YKL-40-histag, chitin binding site) (Homo sapiens (Human), UniProt P36222). Put plainly: YKL-40:4 assay, competitive chitin binding site AlphaScreen.
[1] abbreviates: competition with biotinylated compound 4, 20 nM, YKL-40-histag 2.5 nM, read-out: YKL-40:4, IC50/Kd (IC50 range).

Counter-ions that a name gives are not always drawn. Like-named read-outs stand apart in the source and are kept apart here.

YKL-40 (YKL-40-histag, chitin binding site), sequence (P36222 22-383): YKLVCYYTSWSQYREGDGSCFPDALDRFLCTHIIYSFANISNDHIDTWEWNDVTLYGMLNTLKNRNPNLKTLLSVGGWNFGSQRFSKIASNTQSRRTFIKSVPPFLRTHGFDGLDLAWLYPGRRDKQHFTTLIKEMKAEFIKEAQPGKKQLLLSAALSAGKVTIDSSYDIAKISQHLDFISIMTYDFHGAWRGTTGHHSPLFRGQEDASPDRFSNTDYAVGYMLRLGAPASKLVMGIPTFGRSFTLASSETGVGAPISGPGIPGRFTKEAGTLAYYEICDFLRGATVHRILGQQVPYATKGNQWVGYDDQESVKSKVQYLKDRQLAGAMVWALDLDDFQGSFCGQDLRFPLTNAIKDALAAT

Turning to `C[C@H]1CN(C2CCN(c3cc(CO)ccn3)CC2)[C@@H](Cc2ccc(Cl)cc2)CO1` [Compound 130, (2-(4-((2S,5S)-5-(4-chlorobenzyl)-2-methylmorpholino)piperidin-1-yl)pyridin-4-yl)methanol 2,2,2-trifluoroacetate], the IC50 is over 10 µM.

The molecule `C[C@H]1CN(C2CCN(c3cc(C(C)(C)O)ccn3)CC2)[C@@H](Cc2ccc(Cl)cc2)CO1` [Compound 131, 2-(2-(4-((2S,5S)-5-(4-chlorobenzyl)-2-methylmorpholino)piperidin-1-yl)pyridin-4-yl)propan-2-ol 2,2,2-trifluoroacetate] had an IC50 of over 10 µM.

`C[C@H]1CN(C2CCN(c3cc(C(N)=O)ccn3)CC2)[C@@H](Cc2ccc(Cl)cc2)CO1` [Compound 132, 2-(4-((2S,5S)-5-(4-chlorobenzyl)-2-methylmorpholino)piperidin-1-yl)isonicotinamide 2,2,2-trifluoroacetate] yielded an IC50 of over 10 µM.

For `Cc1cccc(N2CCC(N3C[C@H](C)OC[C@@H]3Cc3ccc(Cl)cc3)CC2)n1` [Compound 135, (2S,5S)-5-(4-chlorobenzyl)-2-methyl-4-(1-(6-methylpyridin-2-yl)piperidin-4-yl)morpholine hydrochloride], under setting [1], the IC50 was over 10 µM.

Turning to `Cc1ccc(N2CCC(N3C[C@H](C)OC[C@@H]3Cc3ccc(Cl)cc3)CC2)nc1` [Compound 136, (2S,5S)-5-(4-chlorobenzyl)-2-methyl-4-(1-(5-methylpyridin-2-yl)piperidin-4-yl)morpholine hydrochloride], the IC50 under setting [1] was over 10 µM.

For `C[C@H]1CN(C2CCN(c3cc(C(F)(F)F)ncn3)CC2)[C@@H](Cc2ccc(Cl)cc2)CO1` [Compound 145, (2S,5S)-5-(4-chlorobenzyl)-2-methyl-4-(1-(6-(trifluoromethyl)pyrimidin-4-yl)piperidin-4-yl)morpholine hydrochloride], the IC50 under setting [1] is over 10 µM.

`O=C1COC[C@H](Cc2ccc(Cl)cc2)N1C1CCN(c2ccccn2)CC1` [Compound 147, (S)-5-(4-chlorobenzyl)-4-(1-(pyridin-2-yl)piperidin-4-yl)morpholin-3-one hydrochloride]: the IC50 under setting [1] was over 10 µM.

`O=C1NCCN(C2CCN(c3ccccn3)CC2)[C@H]1Cc1ccc(Cl)cc1` [Compound 149, (S)-3-(4-chlorobenzyl)-4-(1-(pyridin-2-yl)piperidin-4-yl)piperazin-2-one 2,2,2-trifluoroacetate] had an IC50 of over 10 µM.

As to `CC(C)C1OC[C@H](Cc2ccc(Cl)cc2)N1C1CCN(c2ccccn2)CC1` (stereo partly drawn) [Compound 150, (4S)-4-(4-chlorobenzyl)-2-isopropyl-3-(1-(pyridin-2-yl)piperidin-4-yl)oxazolidine hydrochloride], the IC50 under setting [1] was over 10 µM.

As to `C[C@H]1CN(C2CCN(c3cncc(C(F)(F)F)n3)CC2)[C@@H](Cc2ccc(Cl)cc2)CO1` [Compound 153, (2S,5S)-5-(4-chlorobenzyl)-2-methyl-4-(1-(6-(trifluoromethyl)pyrazin-2-yl)piperidin-4-yl)morpholine hydrochloride], the IC50 under setting [1] was over 10 µM.

`C[C@H]1CN(C2CCN(c3cnc(C(F)(F)F)cn3)CC2)[C@@H](Cc2ccc(Cl)cc2)CO1` [Compound 158, (2S,5S)-5-(4-chlorobenzyl)-2-methyl-4-(1-(5-(trifluoromethyl)pyrazin-2-yl)piperidin-4-yl)morpholine hydrochloride]: the IC50 under setting [1] was over 10 µM.

In turn, `C[C@H]1CN(C2CCN(c3ncccc3O)CC2)[C@@H](Cc2ccc(Cl)cc2)CO1` [Compound 160, 2-(4-((2S,5S)-5-(4-chlorobenzyl)-2-methylmorpholino)piperidin-1-yl)pyridin-3-ol 2,2,2-trifluoroacetate] registered an IC50 of over 10 µM.

Regarding `COc1cccnc1N1CCC(N2C[C@H](C)OC[C@@H]2Cc2ccc(Cl)cc2)CC1` [Compound 162, (2S,5S)-5-(4-chlorobenzyl)-4-(1-(3-methoxypyridin-2-yl)piperidin-4-yl)-2-methylmorpholine 2,2,2-trifluoroacetate], the IC50 is over 10 µM.

The molecule `CC(C)c1nc(N2CCC(N3C[C@H](C)OC[C@@H]3Cc3ccc(Cl)cc3)CC2)no1` [Compound 163, (2S,5S)-5-(4-chlorobenzyl)-4-(1-(5-isopropyl-1,2,4-oxadiazol-3-yl)piperidin-4-yl)-2-methylmorpholine 2,2,2-trifluoroacetate] came in with an IC50 of over 10 µM.

With `C[C@H]1CN(C2CCN(c3noc(C(F)(F)F)n3)CC2)[C@@H](Cc2ccc(Cl)cc2)CO1` [Compound 164, (2S,5S)-5-(4-chlorobenzyl)-2-methyl-4-(1-(5-(trifluoromethyl)-1,2,4-oxadiazol-3-yl)piperidin-4-yl)morpholine 2,2,2-trifluoroacetate], the IC50 is over 10 µM.

Consider `C[C@H]1CN(C2CCN(c3noc(=O)[nH]3)CC2)[C@@H](Cc2ccc(Cl)cc2)CO1` [Compound 165, 3-(4-((2S,5S)-5-(4-chlorobenzyl)-2-methylmorpholino)piperidin-1-yl)-1,2,4-oxadiazol-5(4H)-one 2,2,2-trifluoroacetate], for which the IC50 was over 10 µM.

Regarding `C[C@H]1CN(C2CCN(c3nnn[nH]3)CC2)[C@@H](Cc2ccc(Cl)cc2)CO1` [Compound 166, (2S,5S)-4-(1-(1H-tetrazol-5-yl)piperidin-4-yl)-5-(4-chlorobenzyl)-2-methylmorpholine 2,2,2-trifluoroacetate], the IC50 was over 10 µM.

In turn, `C[C@H]1CN(C2CCN(c3cc(=O)[nH]cn3)CC2)[C@@H](Cc2ccc(Cl)cc2)CO1` [Compound 167, 6-(4-((2S,5S)-5-(4-chlorobenzyl)-2-methylmorpholino)piperidin-1-yl)pyrimidin-4(3H)-one 2,2,2-trifluoroacetate] registered an IC50 of over 10 µM.

The molecule `C[C@H]1CN(C2CCN(c3ncc(C(F)(F)F)o3)CC2)[C@@H](Cc2ccc(Cl)cc2)CO1` [Compound 168, (2S,5S)-5-(4-chlorobenzyl)-2-methyl-4-(1-(5-(trifluoromethyl)oxazol-2-yl)piperidin-4-yl)morpholine 2,2,2-trifluoroacetate] registered an IC50 of over 10 µM.

In turn, `C[C@H]1CN(C2CCN(c3ncnc(Cl)n3)CC2)[C@@H](Cc2ccc(Cl)cc2)CO1` [Compound 169, (2S,5S)-4-(1-(4-chloro-1,3,5-triazin-2-yl)piperidin-4-yl)-5-(4-chlorobenzyl)-2-methylmorpholine 2,2,2-trifluoroacetate] came in with an IC50 of over 10 µM.

Turning to `C[C@H]1CN(C2CCN(c3ncnc(O)n3)CC2)[C@@H](Cc2ccc(Cl)cc2)CO1` [Compound 170], the IC50 was over 10 µM.

Molecule `COc1ncnc(N2CCC(N3C[C@H](C)OC[C@@H]3Cc3ccc(Cl)cc3)CC2)n1` [Compound 171, (2S,5S)-5-(4-chlorobenzyl)-4-(1-(4-methoxy-1,3,5-triazin-2-yl)piperidin-4-yl)-2-methylmorpholine 2,2,2-trifluoroacetate] yielded an IC50 of over 10 µM.

Turning to `Cc1ncnc(N2CCC(N3C[C@H](C)OC[C@@H]3Cc3ccc(Cl)cc3)CC2)n1` [Compound 172, (2S,5S)-5-(4-chlorobenzyl)-2-methyl-4-(1-(4-methyl-1,3,5-triazin-2-yl)piperidin-4-yl)morpholine 2,2,2-trifluoroacetate], the IC50 was over 10 µM.

As for `C[C@H]1CN(C2CCN(c3ncnc(C#N)n3)CC2)[C@@H](Cc2ccc(Cl)cc2)CO1` [Compound 173, 4-(4-((2S,5S)-5-(4-chlorobenzyl)-2-methylmorpholino)piperidin-1-yl)-1,3,5-triazine-2-carbonitrile 2,2,2-trifluoroacetate], the IC50 was over 10 µM.
